Series [1] can be described thus: In vitro cytotoxicity by LDH (lactate dehydrogenase) analysis. It counts as cell-based. The conditions noted are these: human; 5-FAM labeled peptides, 10 uM (also stated 10 ug/ml), 1 h, 37° C., HeLa cells; read-out: LDH % cytotoxicity. The protocol:
In order to assess the in vitro cytotoxicity of the peptides, an LDH (lactate dehydrogenase) analysis was carried out, using LDH kit (Promega G1782), according to manufacturer instructions.
Briefly, HeLa cells from 5 ml of confluent T75 flask were seed in 96 well plate at 10×10^4 cells/mL in 0.1 ml DMEM supplied with 10% Fetal Calf Serum. After 24 hrs incubation with growth medium, wells were replaced with Serum Free growth medium for 24 hrs, and then cells were washed with OptiMEM and replaced with 0.1 ml peptide solution at 10 uM for 1 h at 37° C. 50 ul of supernatant were transferred to the new plate and detected according to Cyto Tox 96, Non Radioactive cytotoxicity assay, (LDH kit Promega G1782). Table 5 presents the results of in vitro cytotoxicity measurements by LDH for S22, S24, S36 and S40 peptides and two positive control peptides; Tat(47-57) and R9. LDH experiment was done with fluorescent labeled (5-FAM) peptides in concentration of […] and the % of cytotoxicity was measured by LDH levels.

Another series concerns HeLa cells. Format: cell-based. Particulars: for cell viability (MTT), FIG. 7: 26.6 ug/ml and 8.88 ug/ml, 16 hours, normalized by untreated cells; for dose response of cell viability (MTT), FIG. 8: average of duplicates. The protocol: In order to examine CPPs capability to deliver into the cell a cargo, the ability of the CPPs to facilitate intracellular cargo delivery of a pro apoptotic peptide—klaklakklaklak (also referred herein as (klaklak)2), was examined. (klaklak)2 is unable to efficiently penetrate cell membranes on its own, and thus using this pro-apoptotic peptide requires efficient intracellular delivery to trigger mitochondrial disruption and mitochondrial-dependent apoptosis. HeLa cells were seeded in DMEM supplemented with 10% fetal Bovine serum (FBS) in 96-well plates, 10,000 cells/well in a total volume of 200 μL 24 hours prior to their treatment with the peptide. Cells were incubated with any one of the CPPs and/or any one of the control peptides ([…]) conjugated to pro-apoptotic peptide (klaklak)2 through a short flexible linker of Gly-Gly (as described in the above peptide synthesis section for SEQ ID NOs: 24-32) for 16 hours under tissue culture conditions. Cell viability was then assessed using MTT[3-(4,5-dimethylthiazol-2-yl)-2,5-diphenyl-2H-tetrazo-liumbromide] assay (Catalog number M5655, Sigma, Israel). MTT reagent was added to cells for 4 hours, following cell lysis using DMSO and absorbance was measured at 492 nm. As positive controls (klaklak)2 conjugated to TAT or R9 were used, corresponding to SEQ ID NOs:26 and 25, respectively. As negative controls (klaklak)2 on its own (SEQ ID NO:31), (klaklak)2 conjugated to N5 ([…]) and peptides not conjugated to (klaklak)2 were used.

Results on 12 compounds are retold here after patent US20140056811A1, “NEW CELL-PENETRATING PEPTIDES AND USES THEREOF” (COMPUGEN LTD., priority 2010, published 2014).

Where two headings read alike, the source gives them in different places. Square brackets hold non-standard residues; d marks the D form. Ends that are not written are not given here. Peptide text beside a SMILES is read from it. * marks the point of attachment. 5FAM = O=C1OC2(c3ccc(O)cc3Oc3cc(O)ccc32)c2ccc(C(=O)*)cc21

Turning to `N=C(N)NCCC[C@H](NC(=O)[C@H](CCCNC(=N)N)NC(=O)[C@H](CCCNC(=N)N)NC(=O)[C@H](CCCNC(=N)N)NC(=O)[C@H](CCCNC(=N)N)NC(=O)[C@H](CCCNC(=N)N)NC(=O)[C@H](CCCNC(=N)N)NC(=O)[C@H](CCCNC(=N)N)NC(=O)[C@H](CCCNC(=N)N)NC(=O)c1ccc2c(c1)C(=O)OC21c2ccc(O)cc2Oc2cc(O)ccc21)C(N)=O` [9R, RRRRRRRRR, reference compound], in series [1], the cytotoxicity at 1 h, 10 µM amounted to 2%.

Consider `CC(C)C[C@H](NC(=O)[C@H](CCCCN)NC(=O)[C@H](CCCCN)NC(=O)[C@H](CC(C)C)NC(=O)[C@@H](NC(=O)[C@H](CCCCN)NC(=O)[C@H](CCCCN)NC(=O)c1ccc2c(c1)C(=O)OC21c2ccc(O)cc2Oc2cc(O)ccc21)[C@@H](C)O)C(=O)N[C@@H](Cc1c[nH]c2ccccc12)C(=O)N[C@@H](CCCCN)C(=O)N[C@@H](CCCCN)C(=O)N[C@@H](CCCCN)C(=O)N[C@@H](CCCCN)C(=O)N[C@@H](CCCNC(=N)N)C(=O)N[C@@H](CCCCN)C(N)=O` [S24, KKTLKKLWKKKKRK] (5FAM-KKTLKKLWKKKKRK-NH2), for which, in series [1], the cytotoxicity at 1 h, 10 µM worked out at 10%.

What is called EC50 is the concentration at which the effect is half-maximal. Take `CC(=O)N[C@@H](CCCCN)C(=O)N[C@@H](CCCCN)C(=O)N[C@H](C(=O)N[C@@H](CC(C)C)C(=O)N[C@@H](CCCCN)C(=O)N[C@@H](CCCCN)C(=O)N[C@@H](CC(C)C)C(=O)N[C@@H](Cc1c[nH]c2ccccc12)C(=O)N[C@@H](CCCCN)C(=O)N[C@@H](CCCCN)C(=O)N[C@@H](CCCCN)C(=O)N[C@@H](CCCCN)C(=O)N[C@@H](CCCNC(=N)N)C(=O)N[C@@H](CCCCN)C(=O)NCC(=O)NCC(=O)N[C@H](CCCCN)C(=O)N[C@H](CC(C)C)C(=O)N[C@H](C)C(=O)N[C@H](CCCCN)C(=O)N[C@H](CC(C)C)C(=O)N[C@H](C)C(=O)N[C@H](CCCCN)C(=O)N[C@H](CCCCN)C(=O)N[C@H](CC(C)C)C(=O)N[C@H](C)C(=O)N[C@H](CCCCN)C(=O)N[C@H](CC(C)C)C(=O)N[C@H](C)C(=O)N[C@H](CCCCN)C(N)=O)[C@@H](C)O` [S24-klaklak, KKTLKKLWKKKKRKGG-klaklakklaklak] (Ac-KKTLKKLWKKKKRKGG[dK][dL][dA][dK][dL][dA][dK][dK][dL][dA][dK][dL][dA][dK]-NH2): in the series on HeLa cells (HeLa cells), the “cell viability (MTT), FIG. 7” value was “reduction in cell viability”. For the same compound, in the series with HeLa cells (16 hr, HeLa cells, unit only from the X axis (log uM concentration), read-out: EC50 of cell viability (MTT), FIG. 9), the EC50 came out at 8.45 µM.

Consider `N=C(N)NCCC[C@H](NC(=O)c1ccc2c(c1)C(=O)OC21c2ccc(O)cc2Oc2cc(O)ccc21)C(=O)N[C@@H](CCCNC(=N)N)C(=O)N[C@@H](CCCNC(=N)N)C(=O)N[C@@H](Cc1c[nH]cn1)C(=O)N[C@@H](CCC(N)=O)C(=O)N[C@@H](CCCNC(=N)N)C(=O)N[C@@H](CCCCN)C(=O)N[C@@H](Cc1ccc(O)cc1)C(=O)N[C@@H](CCCNC(=N)N)C(=O)N[C@@H](CCCNC(=N)N)C(=O)N[C@@H](Cc1ccc(O)cc1)C(N)=O` [S36, RRRHQRKYRRY] (5FAM-RRRHQRKYRRY-NH2), for which the cytotoxicity at 1 h, 10 µM in series [1] is 3%.

On to `CC(=O)N[C@@H](CCCNC(=N)N)C(=O)N[C@@H](CCCNC(=N)N)C(=O)N[C@@H](CCCNC(=N)N)C(=O)N[C@@H](Cc1c[nH]cn1)C(=O)N[C@@H](CCC(N)=O)C(=O)N[C@@H](CCCNC(=N)N)C(=O)N[C@@H](CCCCN)C(=O)N[C@@H](Cc1ccc(O)cc1)C(=O)N[C@@H](CCCNC(=N)N)C(=O)N[C@@H](CCCNC(=N)N)C(=O)N[C@@H](Cc1ccc(O)cc1)C(=O)NCC(=O)NCC(=O)N[C@H](CCCCN)C(=O)N[C@H](CC(C)C)C(=O)N[C@H](C)C(=O)N[C@H](CCCCN)C(=O)N[C@H](CC(C)C)C(=O)N[C@H](C)C(=O)N[C@H](CCCCN)C(=O)N[C@H](CCCCN)C(=O)N[C@H](CC(C)C)C(=O)N[C@H](C)C(=O)N[C@H](CCCCN)C(=O)N[C@H](CC(C)C)C(=O)N[C@H](C)C(=O)N[C@H](CCCCN)C(N)=O` [S36-klaklak, RRRHQRKYRRYGG-klaklakklaklak] (Ac-RRRHQRKYRRYGG[dK][dL][dA][dK][dL][dA][dK][dK][dL][dA][dK][dL][dA][dK]-NH2), for which the “cell viability (MTT), FIG. 7” value with HeLa cells (HeLa cells) is “reduction in cell viability”. Moreover, the EC50 with HeLa cells (16 h) came out at 11.2 µM.

Regarding `CC(C)C[C@H](NC(=O)[C@H](Cc1ccccc1)NC(=O)c1ccc2c(c1)C(=O)OC21c2ccc(O)cc2Oc2cc(O)ccc21)C(=O)N[C@@H](CCCNC(=N)N)C(=O)N[C@@H](CCCNC(=N)N)C(=O)N[C@@H](CCCNC(=N)N)C(=O)N[C@@H](CCCNC(=N)N)C(=O)N[C@@H](CCCNC(=N)N)C(=O)N[C@@H](Cc1ccccc1)C(=O)N[C@H](C(=O)N[C@@H](CCCNC(=N)N)C(=O)N[C@@H](CCC(N)=O)C(=O)N[C@H](C(N)=O)[C@@H](C)O)[C@@H](C)O` [S40, FLRRRRRFTRQT] (5FAM-FLRRRRRFTRQT-NH2), the cytotoxicity at 1 h, 10 µM in series [1] was found to be 8%.

Take “FLRRRRRFTRQTGG-klaklakklaklak (Ac-FLRRRRRFTRQTGG[dK][dL][dA][dK][dL][dA][dK][dK][dL][dA][dK][dL][dA][dK]-NH2) [S40-klaklak, S40 conjugated to (klaklak)2 with GG linker]”: the “cell viability (MTT), FIG. 7” value in the series with HeLa cells (HeLa cells) is recorded as “reduction in cell viability”.

Regarding “KPSARMLLLKGFGKGG-klaklakklaklak (Ac-KPSARMLLLKGFGKGG[dK][dL][dA][dK][dL][dA][dK][dK][dL][dA][dK][dL][dA][dK]-NH2) [S8-klaklak, S8 conjugated to (klaklak)2 with GG linker]”, in the series on HeLa cells (HeLa cells), the “cell viability (MTT), FIG. 7” value was “reduction in cell viability”.

Take “RRRRRRRRRGG-klaklakklaklak (RRRRRRRRRGG[dK][dL][dA][dK][dL][dA][dK][dK][dL][dA][dK][dL][dA][dK]) [R9-klaklak, positive control R9 conjugated to (klaklak)2 with GG linker, reference compound]”: in the series on HeLa cells (16 hr, HeLa cells), the “dose response of cell viability (MTT), FIG. 8” value (“dose response of cell viability” below) is on record as “effective dose response curve”.

Take “VATIKSVSFYTRKGG-klaklakklaklak (Ac-VATIKSVSFYTRKGG[dK][dL][dA][dK][dL][dA][dK][dK][dL][dA][dK][dL][dA][dK]-NH2) [N2-klaklak, negative control peptide N2 conjugated to (klaklak)2 with GG linker, reference compound]”: the “dose response of cell viability” value in the series on HeLa cells (16 hr, HeLa cells) was “no dose response curve—no effect”.

With “YGRKKRRQRRRGG-klaklakklaklak (YGRKKRRQRRRGGKLAKLAKKLAKLAK) [TAT-klaklak, positive control TAT conjugated to (klaklak)2 with GG linker, reference compound]”, the “dose response of cell viability” value with HeLa cells (16 hr, HeLa cells) is given as “effective dose response curve”.

As for “klaklakklaklak (KLAKLAKKLAKLAK; D-amino acids) [(klaklak)2, pro apoptotic peptide used as cargo, reference compound]”, in the series with HeLa cells (HeLa cells), the “cell viability (MTT), FIG. 7” value was “almost no reduction in cell viability”.
